Data reported in US8614205B2, “Glutamate receptor modulators and therapeutic agents” (priority 2009, dated 2013).
“And” between values parts separate entries of the source, which are not always exact repeats. Equal entries are not always repeated.

Experiments:
[1] = molecular target: T1, mGluR5 (Homo sapiens, UniProt P41594); assay: aequorin calcium assay, negative allosteric modulation of mGluR5; assay type: cell-based; details: aequorin assay, agonist at EC80; 10000 = no activity observed at 10,000 nM; read-out: mGluR5 EC50
T1 construct: expression induced with doxycycline
Experimental: (§1) The ability of test compound to ameliorate the efflux of calcium cations (Ca^++) in the presence of agonist (glutamate or quisqualate) is measured by detection of light emitted by the luminescent protein aequorin triggered by binding of Ca^++. Aequorin is a photoprotein isolated from luminescent jellyfish (like various Aequorea species e.g. Aequorea victoria). Aequorin is composed of two distinct units, the apoprotein apoaequorin, with an approximate molecular weight of 22 kDa, and the prosthetic group, coelenterazine, responsible for emission of light. In the presence of molecular oxygen the two components of aequorin assemble spontaneously, forming the functional protein. Four EF-hand type regions have been identified in the structure of Aequorin and at least 3 of them function as binding sites for Ca+2 ions: Ca+2 binding to these EF hands triggers a conformational change of the protein, that leads it to oxidize its prosthetic group, coelenterazine, into excited coelenteramide and CO2. As the excited coelenteramide relaxes to the ground state, blue light (wavelength=469 nm) is emitted and can be measured by a luminometer. Negative allosteric modulator activity of test compound is expressed as a percentage of the stimulation of reference agonist (glutamate) activity at its EC80 concentration. Assay of Compounds was performed at Euroscreen SA, Gosselies, Belgium.
(§2) Cells stably transfected with mGlu1 or mGlu5 were grown 18 hours prior to the test in culture medium containing 600 ng/ml doxycycline, then were detached by gentle flushing with PBS-EDTA, recovered by centrifugation and resuspended in “assay buffer” (HBSS, 2.1 mM CaCl2, 3 μg/ml GPT (Glutamate-Pyruvate transaminase), 4 mM MEM Sodium Pyruvate, 0.1% BSA, protease free). Cells were incubated at room temperature for at least 4 h with coelenterazine-h. Dose response curves were performed using mGluR1 cells with the orthosteric agonist glutamate and negative allosteric modulator JNJ16259685. Dose response curves were performed using mGluR5 cells with the orthosteric agonist glutamate and negative allosteric modulator MPEP. For agonist testing, 30 μl of cell suspension were mixed with 30 μl of test compound or reference agonist in a 384-well plate. The resulting emission of light was recorded using the Hamamatsu Functional Drug Screening System 6000 (FDSS 6000). For negative allosteric modulator testing, 60 μl of the resulting cell suspension containing the test compound was mixed with 30 μl of the reference agonist at EC80 following an incubation of 3 min after the first injection. The resulting emission of light was recorded using FDSS 6000. […] Plates also contained the reference agonist at a concentration equivalent to the EC80 obtained during the test validation. Negative allosteric modulator activity of test compound was expressed as a percentage of the stimulation of reference agonist activity at its EC80 concentration.

[2] = molecular target: T2, mGluR1 (Homo sapiens, UniProt Q13255); assay: aequorin calcium assay, negative allosteric modulation of mGluR1; assay type: cell-based; details: for mGluR1/mGluR5 Ratio: EC50 for mGluR1 divided by EC50 for mGluR5; for EC50: aequorin assay, agonist at EC80, 10000 = no activity observed at 10,000 nM
T2 construct: expression induced with doxycycline
Experimental: as §1, §2

[3] = system: hyperalgesia in partial sciatic nerve ligation rat; assay: partial sciatic nerve ligation (PSN) model of neuropathic pain, paw withdrawal method; assay type: in vivo; details: 100 μg intrathecal; for % MPE (0-100) 1 hr / Paw withdrawal thresholds (g; raw data) 1 hr / Raw MPE (%) 1 hr / % MPE (0-100) 3 hrs / Paw withdrawal thresholds (g; raw data) 3 hrs / Raw MPE (%) 3 hrs / % MPE (0-100) 5 hrs / Paw withdrawal thresholds (g; raw data) 5 hrs / Raw MPE (%) 5 hrs / % MPE (0-100) 24 hrs / Paw withdrawal thresholds (g; raw data) 24 hrs / Raw MPE (%) 24 hrs: PSN Sx rat
Experimental: Briefly, under gas anesthesia, the skin and muscles of the thigh were reflected to expose the sciatic nerve. About one-third to one-half of the cross-sectional area of the nerve was tightly ligated using a 7-0 nylon suture. The incision was closed in layers (suture for muscle, surgical adhesive for skin). […] Treated rats were assayed at 1, 3, 5, and 24 hr using the paw withdrawal method (L. Randall and J. Selitto, 1957, Arch. Int. Pharmacodynam., 111:409-19). […] The Partial sciatic nerve ligation assay was performed at Eurofins/Product Safety Laboratories (Dayton, N.J.).
Animals were housed in cages which conform to the size recommendations in the most recent NIH Guide for the Care and Use of Laboratory Animals. […] The animals were fed Purina Rodent Chow #5012. The animals were acclimated to the facility for 7 days prior to the study. A pre-operative baseline paw withdrawal measure was collected for all rats. […] After recovery, a pre-dosing baseline paw withdrawal threshold was collected for all rats. […] Rats were lightly anesthetized and treated with test article or vehicle. Paw withdrawal thresholds were determined at one, three, five, and 24 hours post dosing. […] Briefly, under gas anesthesia, the skin and muscles of the thigh were reflected to expose the sciatic nerve. About one third to one half of the cross-sectional area of the nerve was tightly ligated using a 7-0 nylon suture. The incision was closed in layers (suture for muscle, surgical adhesive for skin). Test article or vehicle was administered by transcutaneous injection (C. Mestre et al., 1994, J. Pharm. Tox. Meth., 32:197-200). Briefly, the rat was lightly anesthetized and placed to flex the lower lumbar vertebrae. After palpating the vertebral processes, a 26 gauge needle was inserted through a vertebral interspace. The presence of a tail flick was considered validation of the needle placement; the solution was then injected. Paw withdrawal thresholds were assessed using a paw pressure device (L. O. Randall & J. J. Selitto, 1957, Arch. Int. Pharmacodyn., 111:409-19). The behavioral endpoint was defined as paw withdrawal. Data was analyzed by two-way analysis of variance (repeated measures) with Bonferroni tests at individual time points. Paw withdrawal threshold raw values were used for the analysis, and each route of administration was analyzed separately. Vehicle-treated groups were used as the statistical comparison groups.

T1 sequence (P41594 21-1212): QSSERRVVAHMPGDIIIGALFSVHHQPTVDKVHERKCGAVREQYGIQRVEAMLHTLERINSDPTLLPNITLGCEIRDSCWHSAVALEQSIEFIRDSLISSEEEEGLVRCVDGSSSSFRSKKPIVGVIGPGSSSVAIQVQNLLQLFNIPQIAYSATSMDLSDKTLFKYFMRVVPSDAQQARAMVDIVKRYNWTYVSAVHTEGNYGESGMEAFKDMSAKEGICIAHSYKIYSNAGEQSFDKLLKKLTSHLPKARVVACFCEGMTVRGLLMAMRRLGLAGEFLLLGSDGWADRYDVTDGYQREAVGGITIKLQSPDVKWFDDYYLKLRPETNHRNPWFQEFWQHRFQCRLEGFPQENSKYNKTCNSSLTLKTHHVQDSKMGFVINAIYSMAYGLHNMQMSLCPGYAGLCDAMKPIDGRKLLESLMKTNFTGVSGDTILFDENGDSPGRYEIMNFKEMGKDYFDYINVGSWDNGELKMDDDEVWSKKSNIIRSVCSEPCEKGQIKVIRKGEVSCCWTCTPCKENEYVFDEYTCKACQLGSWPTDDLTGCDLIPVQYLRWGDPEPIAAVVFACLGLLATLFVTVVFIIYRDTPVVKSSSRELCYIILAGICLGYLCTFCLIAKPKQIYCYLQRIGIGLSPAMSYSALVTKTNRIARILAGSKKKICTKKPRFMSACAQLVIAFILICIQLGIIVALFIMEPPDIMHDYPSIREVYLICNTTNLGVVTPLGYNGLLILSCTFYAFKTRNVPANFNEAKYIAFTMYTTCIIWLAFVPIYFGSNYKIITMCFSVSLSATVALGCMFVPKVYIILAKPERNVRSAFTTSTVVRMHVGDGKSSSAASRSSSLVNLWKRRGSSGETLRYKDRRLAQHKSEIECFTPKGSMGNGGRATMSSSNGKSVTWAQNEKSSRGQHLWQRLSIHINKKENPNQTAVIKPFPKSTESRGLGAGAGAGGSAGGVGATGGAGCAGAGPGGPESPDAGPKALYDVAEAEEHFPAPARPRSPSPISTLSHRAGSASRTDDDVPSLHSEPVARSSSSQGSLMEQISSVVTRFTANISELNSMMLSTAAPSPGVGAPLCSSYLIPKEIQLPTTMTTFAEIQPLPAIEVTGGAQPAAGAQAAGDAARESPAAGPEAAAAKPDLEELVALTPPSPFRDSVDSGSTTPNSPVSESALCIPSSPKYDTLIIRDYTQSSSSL
T2 sequence (Q13255 19-1194): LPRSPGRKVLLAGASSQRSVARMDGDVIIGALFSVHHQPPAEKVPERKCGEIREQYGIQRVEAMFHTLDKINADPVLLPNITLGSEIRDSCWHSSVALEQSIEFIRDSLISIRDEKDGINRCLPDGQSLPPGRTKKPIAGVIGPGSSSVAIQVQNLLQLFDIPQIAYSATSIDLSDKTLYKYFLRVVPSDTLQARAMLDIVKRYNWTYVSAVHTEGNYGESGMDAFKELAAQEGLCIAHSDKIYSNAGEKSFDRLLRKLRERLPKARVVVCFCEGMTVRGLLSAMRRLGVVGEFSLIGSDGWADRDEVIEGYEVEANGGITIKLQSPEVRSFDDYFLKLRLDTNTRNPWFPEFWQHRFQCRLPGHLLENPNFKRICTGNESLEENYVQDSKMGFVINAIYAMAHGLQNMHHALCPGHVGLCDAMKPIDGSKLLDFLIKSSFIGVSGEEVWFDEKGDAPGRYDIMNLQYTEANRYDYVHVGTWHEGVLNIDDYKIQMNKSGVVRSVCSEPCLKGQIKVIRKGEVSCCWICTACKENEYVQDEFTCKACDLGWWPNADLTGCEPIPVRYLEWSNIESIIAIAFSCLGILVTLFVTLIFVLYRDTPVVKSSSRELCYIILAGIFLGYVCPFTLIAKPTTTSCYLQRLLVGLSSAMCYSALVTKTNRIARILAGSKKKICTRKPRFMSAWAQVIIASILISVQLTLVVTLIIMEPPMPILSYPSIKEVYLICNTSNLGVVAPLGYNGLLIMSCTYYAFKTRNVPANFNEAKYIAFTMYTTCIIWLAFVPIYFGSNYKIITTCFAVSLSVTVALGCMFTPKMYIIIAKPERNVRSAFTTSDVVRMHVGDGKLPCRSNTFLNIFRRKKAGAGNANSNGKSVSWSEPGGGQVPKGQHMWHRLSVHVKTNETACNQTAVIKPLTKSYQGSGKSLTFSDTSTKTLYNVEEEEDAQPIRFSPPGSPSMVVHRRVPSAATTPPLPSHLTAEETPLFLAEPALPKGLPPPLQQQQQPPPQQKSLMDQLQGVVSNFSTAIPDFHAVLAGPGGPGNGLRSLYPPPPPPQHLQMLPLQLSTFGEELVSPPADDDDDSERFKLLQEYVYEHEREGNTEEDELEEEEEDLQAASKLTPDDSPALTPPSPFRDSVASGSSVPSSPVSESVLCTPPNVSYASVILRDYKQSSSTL

Structure (SMILES): O=C(Nc1ccc([N+](=O)[O-])cc1Cl)c1ccccc1O [Compound 4, N-(2-chloro-4-nitrophenyl)-2 hydroxybenzamide]
- EC50 [1]: 168 nM
- mGluR1/mGluR5 Ratio [2]: 1.73
- EC50 [2]: 290 nM

Structure (SMILES): O=C(Nc1ccc([N+](=O)[O-])cc1Cl)c1cc(Cl)ccc1OC(=O)N1CCC[C@H]1C(=O)O [Compound 27]
- EC50 [1]: > 10000 nM
- EC50 [2]: > 10000 nM

Structure (SMILES): CCc1cccc(NC(=O)c2cc(Cl)ccc2O)c1 [Compound 12, 5-Chloro-2-hydroxy-N-(3-ethylphenyl)benzamide]
- EC50 [1]: 135 nM
- mGluR1/mGluR5 Ratio [2]: 6.36
- EC50 [2]: 859 nM

Structure (SMILES): Cc1cccc(NC(=O)c2cc(Cl)ccc2O)c1 [Compound 8]
- EC50 [1]: 84 nM
- mGluR1/mGluR5 Ratio [2]: 28.40
- EC50 [2]: 2390 nM

Structure (SMILES): NCC1(CC(=O)O)CCCCC1 [Gabapentin, gabapentin, reference compound]
- % MPE (0-100) 1 hr ([3]; group Average (N 6)): 63.2%
- Paw withdrawal thresholds (g; raw data) 1 hr ([3]; group Average (N 6)): 165.0 g
- Raw MPE (%) 1 hr ([3]; group Average (N 6)): 77.4%
- % MPE (0-100) 1 hr ([3]; individual rat): 53.9% and 100.0% (3×) and 0.8% and 24.4%
- Paw withdrawal thresholds (g; raw data) 1 hr ([3]; individual rat): 145 g and 250 g and 190 g and 100 g and 120 g and 185 g
- Raw MPE (%) 1 hr ([3]; individual rat): 53.9% and 177.6% and 106.9% and 0.8% and 24.4% and 101.0%
- % MPE (0-100) 3 hrs ([3]; group Average (N 6)): 43.5%
- Paw withdrawal thresholds (g; raw data) 3 hrs ([3]; group Average (N 6)): 134.2 g
- Raw MPE (%) 3 hrs ([3]; group Average (N 6)): 47.7%
- % MPE (0-100) 3 hrs ([3]; individual rat): 0.0% (2×) and 34.6% (2×) and 91.7% and 100.0%
- Paw withdrawal thresholds (g; raw data) 3 hrs ([3]; individual rat): 70 g and 125 g (2×) and 90 g and 165 g and 230 g
- Raw MPE (%) 3 hrs ([3]; individual rat): −43.8% and 34.6% (2×) and −15.3% and 91.7% and 184.4%
- % MPE (0-100) 5 hrs ([3]; group Average (N 6)): 17.4%
- Paw withdrawal thresholds (g; raw data) 5 hrs ([3]; group Average (N 6)): 96.7 g
- Raw MPE (%) 5 hrs ([3]; group Average (N 6)): −0.6%
- % MPE (0-100) 5 hrs ([3]; individual rat): 0.0% (3×) and 43.6% and 3.8% and 56.9%
- Paw withdrawal thresholds (g; raw data) 5 hrs ([3]; individual rat): 60 g and 130 g and 85 g and 100 g and 140 g and 65 g
- Raw MPE (%) 5 hrs ([3]; individual rat): −49.3% and 43.6% and −16.1% and 3.8% and 56.9% and −42.7%
- % MPE (0-100) 24 hrs ([3]; group Average (N 6)): 16.4%
- Paw withdrawal thresholds (g; raw data) 24 hrs ([3]; group Average (N 6)): 98.3 g
- Raw MPE (%) 24 hrs ([3]; group Average (N 6)): 6.7%
- % MPE (0-100) 24 hrs ([3]; individual rat): 0.0% (3×) and 23.3% and 58.7% and 16.2%
- Paw withdrawal thresholds (g; raw data) 24 hrs ([3]; individual rat): 85 g and 110 g and 80 g and 75 g and 135 g and 105 g
- Raw MPE (%) 24 hrs ([3]; individual rat): −12.1% and 23.3% and −19.2% and −26.3% and 58.7% and 16.2%
- reversing hyperalgesia ([3]; rat): effective in reversing hyperalgesia

Structure (SMILES): O=C(Nc1cccc(Cl)c1)c1cc(Cl)ccc1O [Compound 14]
- EC50 [1]: 126 nM
- mGluR1/mGluR5 Ratio [2]: 4.15
- EC50 [2]: 523 nM

Structure (SMILES): O=C(Nc1ccc([N+](=O)[O-])cc1Cl)c1cc(Cl)cc(Cl)c1O [Compound 2, 3,5-dichoro-N-(2-chloro-4-nitrophenyl)-2 hydroxybenzamide]
- EC50 [1]: 669 nM
- mGluR1/mGluR5 Ratio [2]: 2.36
- EC50 [2]: 1580 nM

Structure (SMILES): O=C(Nc1cccc(C(F)(F)F)c1)c1cc(Cl)ccc1O [Compound 13]
- EC50 [1]: 127 nM
- mGluR1/mGluR5 Ratio [2]: 2.15
- EC50 [2]: 273 nM

Structure (SMILES): C=Cc1cccc(NC(=O)c2cc(Cl)ccc2O)c1 [Compound 11, 5-Chloro-2-hydroxy-N-(3-vinylphenyl)benzamide]
- EC50 [1]: 48 nM
- mGluR1/mGluR5 Ratio [2]: 7.73
- EC50 [2]: 371 nM

Structure (SMILES): Cc1cc(C)cc(NC(=O)c2cc(Cl)ccc2O)c1 [Compound 19]
- EC50 [1]: 122 nM
- mGluR1/mGluR5 Ratio [2]: 9.39
- EC50 [2]: 1140 nM

Structure (SMILES): O=C(Nc1cccc(F)c1)c1cc(Cl)ccc1O [Compound 17]
- EC50 [1]: 138 nM
- mGluR1/mGluR5 Ratio [2]: 4.33
- EC50 [2]: 598 nM

Structure (SMILES): O=C(Nc1ccccc1)c1cc(Cl)ccc1O [Compound 6]
- EC50 [1]: 731 nM
- mGluR1/mGluR5 Ratio [2]: 4.16
- EC50 [2]: 3040 nM

Structure (SMILES): CN(C)C(=O)Oc1ccc(Cl)cc1C(=O)Nc1ccc([N+](=O)[O-])cc1Cl [Compound 23, 4-chloro-2-(2-chloro-4-nitrophenylcarbamoyl)phenyl dimethyl carbamate]
- EC50 [1]: > 10000 nM
- EC50 [2]: > 10000 nM

Structure (SMILES): COC(=O)[C@@H]1CCCN1C(=O)Oc1ccc(Cl)cc1C(=O)Nc1ccc([N+](=O)[O-])cc1Cl [Compound 25]
- EC50 [1]: > 10000 nM
- EC50 [2]: > 10000 nM

Structure (SMILES): O=C(Nc1cc(C(F)(F)F)cc(C(F)(F)F)c1)c1cc(Cl)ccc1O [Compound 20]
- EC50 [1]: 91 nM
- mGluR1/mGluR5 Ratio [2]: 1.22
- EC50 [2]: 111 nM

Structure (SMILES): CC(C)(C)c1cccc(NC(=O)c2cc(Cl)ccc2O)c1 [Compound 18, 5-Chloro-N-(3-tert-butylphenyl)-2-hydroxybenzamide]
- EC50 [1]: 238 nM
- mGluR1/mGluR5 Ratio [2]: 1.40
- EC50 [2]: 334 nM

Structure (SMILES): N#Cc1cccc(NC(=O)c2cc(Cl)ccc2O)c1 [Compound 16, 5-Chloro-N-(3-cyanophenyl)-2-hydroxybenzamide]
- EC50 [1]: 235 nM
- mGluR1/mGluR5 Ratio [2]: 42.55
- EC50 [2]: > 10000 nM

Structure (SMILES): CC(C)(C)OC(=O)[C@@H]1CCCN1C(=O)Oc1ccc(Cl)cc1C(=O)Nc1ccc([N+](=O)[O-])cc1Cl [Compound 26]
- EC50 [1]: > 10000 nM
- EC50 [2]: > 10000 nM

Structure (SMILES): O=C(Nc1ccc(Cl)c(Cl)c1)c1cc(Cl)ccc1O [Compound 5]
- EC50 [1]: 90 nM
- mGluR1/mGluR5 Ratio [2]: 1.99
- EC50 [2]: 179 nM

Structure (SMILES): O=C(Nc1cccc(Br)c1)c1cc(Cl)ccc1O [Compound 9]
- EC50 [1]: 166 nM
- mGluR1/mGluR5 Ratio [2]: 2.77
- EC50 [2]: 459 nM

Structure (SMILES): C#Cc1cccc(NC(=O)c2cc(Cl)ccc2O)c1 [Compound 10]
- EC50 [1]: 122 nM
- mGluR1/mGluR5 Ratio [2]: 7.64
- EC50 [2]: 932 nM
